Results reported in US10314819B2, “Solid state forms of Eluxadoline” (TEVA PHARMACEUTICALS INTERNATIONAL GMBH, priority 2015, dated 2019).

Legend:
Assay type in all cases: physicochemical
[1] = Specific surface area (SSA), BET nitrogen
Experimental: Specific Surface Area (SSA) measurements (Bet Nitrogen) were determined using a Micromeritics ASAP 2000, specific surface area analyzer. Samples were subjected to the BET nitrogen adsorption analysis to determine the specific surface of the samples.
Sample tube: 10 cc bulb with ½″ stem
Sample mass: Approximately ½ full cell
Sample preparation: Degassing with nitrogen
Outgassing conditions: 40° C. (30 min)
Isothermal collection point: 20 adsorption points, in the range 0-1 P/P0
Isothermal data analysis range: 5 point BET in the range 0.05-0.20 P/P0
Equilibration interval: 5 s
Equilibration time out: 600 s

[2] = Dissolution in 50 mM phosphate buffer pH = 7.4 at 37° C.; settings: 50 mM phosphate buffer pH = 7.4, 37° C.
Experimental: Samples were prepared and analysed in duplicate. About 20 mg of each sample were weighed into 500 ml Erlenmeyer flask, 200 ml of 50 mM phosphate buffer pH=7.4, previously heated to 37° C. were added and flasks were shaken at 110 rpm for 60 minutes at 37±0.2° C. in an incubator shaker. 3 ml aliquots were taken at 5, 10, 20, 30, 45 and 60 min, filtered through 0.45 μm Chromafil Xtra RC 45/25 syringe filter and analysed by UV/VIS spectrometer (absorbance at 203 nm).
The measurement was performed using the following instruments: • pH/Ion meter PHM 240, MeterLab, Radiometer Analytical • Incubator shaker Innova 4080, New Brunswick Scientific, 19 mm diameter circular orbit • UV/VIS spectrometer Varian Cary 50 Bio, 1 mm quartz cell Results of Eluxadoline samples dissolution in 50 mM phosphate buffer pH=7.4 are summarized in Table 8 below: […]

[3] = Bulk density/tapped density, Hausner ratio and Carr index (Ph. Eur. 2.9.34. Method 1); settings: PSD/μm 3/8/24
Experimental: Bulk density/tapped density and corresponding Hausner ratio and Carr index were determined according to Ph. Eur. 2.9.34. Method 1.

[4] = % weight loss / water content (TGA, KF) after storage at various relative humidity; settings: for % weight loss/water cont. - after 21 days, TGA: TGA up to 121° C.
Experimental: (§1) The obtained amorphous form was stored at various conditions, and the PXRD was analyzed after 3 and 7 days:
(§2) The obtained form alpha was stored at various conditions, and the PXRD was analyzed after 3 and 8 days:
(§3) The obtained amorphous form was stored at various conditions of relative humidity, and the PXRD was obtained after 1M (Table 4):
(§4) The obtained amorphous form was stored at various conditions, and the PXRD was obtained after 2M (Table 5):
(§5) XRPD pattern is shown in FIG. 16; SEM image is shown in FIG. 17; DSC thermogram is shown in FIG. 21 and TGA thermogram is shown in FIG. 22. The obtained form alpha was stored at various conditions, and the PXRD was obtained after 8, 14, and 21 days (Table 6): […]

[5] = Polymorph stability on storage at various relative humidity (PXRD)
Experimental: Sample after being powdered in a mortar and pestle is applied directly on a silicon plate holder. The X-ray powder diffraction pattern was measured with Philips X'Pert PRO X-ray powder diffractometer, equipped with Cu irradiation source=1.54184 Å(Ångström), X'Celerator (2.022° 2θ) detector. Scanning parameters: angle range: 3-40 deg., step size 0.0167, time per step 37 s, continuous scan.
as §1
The obtained pure amorphous form was stored at various conditions, and the PXRD was analyzed after 3 and 7 days:
as §2, §3, §4, §5

[6] = Texture analysis / density at 0.2 MPa; settings: 200 mg sample compressed in steel mould
Experimental: A simple and low sample consuming method for evaluation of the packing density of powders were obtained as compression profiles under low pressures using a die and a flat-faced punch fitted on a TA-XTplus Texture analyser (Stable Micro Systems Ltd., Godalming, UK). The small amount of 200 mg of sample is compressed in a steel mould (with the rate of displacement 0.03 mm/s). Also, a cyclic procedure (similar to tapping) was performed at maximal compressive displacement 0.5 mm, then retracting, relaxation for 15 s and then repeated compressive steps (altogether up to 20 steps).

COc1ccc(CN(C(=O)[C@@H](N)Cc2c(C)cc(C(N)=O)cc2C)[C@@H](C)c2nc(-c3ccccc3)c[nH]2)cc1C(=O)O [Example 22]
SSA [1]: 9.63 m^2/g | % dissolved ([2]; 5 min): 83.62% | % dissolved ([2]; 10 min): 91.02% | % dissolved ([2]; 20 min): 95.48% | % dissolved ([2]; 30 min): 95.87% | % dissolved ([2]; 45 min): 96.56% | % dissolved ([2]; 60 min): 96.64% | Bulk density [3]: 0.33 mg/mm^3 | Carr's index [3]: 14.93% | Flow character (Carr's index) [3]: good | Hausner ratio [3]: 1.18 | Tapped density [3]: 0.39 mg/mm^3 | % weight loss/water cont. - after 21 days, TGA ([4]; 0% RH, 21 days): TGA-0.96% | % weight loss/water cont. - after 21 days, TGA ([4]; 20% RH, 21 days): TGA-1.26% | % weight loss/water cont. - after 21 days, TGA ([4]; 40% RH, 21 days): TGA-1.46% | % weight loss/water cont. - after 21 days, TGA ([4]; 60% RH, 21 days): TGA-6.30% | % weight loss/water cont. - after 21 days, TGA ([4]; 80% RH, 21 days): TGA-7.00% | % weight loss/water cont. - after 21 days, TGA ([4]; 100% RH, 21 days): TGA-9.01% | % weight loss/water cont. - after 21 days, KF ([4]; As is): 1.12% | % weight loss/water cont. - after 21 days, TGA ([4]; As is): 0.95% | PXRD results - after 21 days ([5]; 0% RH, 21 days): alpha | PXRD results - after 21 days ([5]; 20% RH, 21 days): alpha | PXRD results - after 21 days ([5]; 40% RH, 21 days): alpha | PXRD results - after 21 days ([5]; 60% RH, 21 days): alpha | PXRD results - after 21 days ([5]; 80% RH, 21 days): alpha | PXRD results - after 21 days ([5]; 100% RH, 21 days): alpha | PXRD results - after 21 days ([5]; As is): alpha | Density at 0.2 MPa [6]: 0.4707 mg/mm^3
